These molecules were tested against hMC4R (Homo sapiens (Human), UniProt P32245) (assay: In vitro binding affinity assay using hMC4R (radioligand competition binding, [125I]-(Nle4, D-Phe7)-α-MSH)). Conditions: geometric mean, read-out: Ki (nM) geometric mean.
Procedure: Example AA. In Vitro Binding Affinity Assay Using hMC4R
The binding affinity of test compounds at the […] (hMC4R) was assessed using a radioligand competition binding assay. […] Cell membranes were bulked and frozen until the assay was performed.
Compounds were solubilized in 100% dimethyl sulfoxide (DMSO) to a concentration of 30 mM. A 10-point intermediate dilution series using half log dilutions was created in 100% DMSO with a top concentration of 0.03 mM. […] The final compound range in the assay was 300 nM to 0.01 nM with a final DMSO concentration of 1%. […] The exact concentration of radioligand used for each experiment was determined by liquid scintillation counting and adjusted if necessary.
Frozen hMC4R cell membranes were thawed and Dounce homogenized. Homogenates were resuspended in assay buffer to a concentration of 2 μg per well. […] The plates were incubated for 2 hours at room temperature.
The raw data (expressed as counts per minute) were analyzed using ActivityBase (IDBS Data Management Software). […] Equilibrium dissociation constant for inhibitor of ligand and receptor interaction (Ki) values were then calculated from the IC50 values using the Cheng-Prusoff equation: Ki=IC50/(1+([L]/Kd)), where [L] is the concentration of the radioligand used in the experiment and Kd is the affinity of the radioligand (determined in separate saturation experiments).

Sequence of hMC4R (P32245 whole entry): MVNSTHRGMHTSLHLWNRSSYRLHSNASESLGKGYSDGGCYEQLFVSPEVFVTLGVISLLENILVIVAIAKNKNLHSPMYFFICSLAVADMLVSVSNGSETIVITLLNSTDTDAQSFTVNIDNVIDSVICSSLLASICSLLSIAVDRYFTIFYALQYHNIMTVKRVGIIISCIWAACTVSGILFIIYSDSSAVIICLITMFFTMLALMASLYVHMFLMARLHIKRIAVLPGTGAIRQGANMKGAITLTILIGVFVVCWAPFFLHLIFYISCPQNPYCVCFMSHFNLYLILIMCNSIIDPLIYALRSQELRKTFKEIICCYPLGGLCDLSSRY

Row | Ki [nM] | Compound
1 | > 200 | Cc1nc2c(cc1-c1ncccn1)CC[C@@]1(CCN(C(=O)C(C)c3ccc(OC(F)F)nc3)C1)N2 (single isomer, unassigned) [Example 5]
2 | 380 | Cc1ccc2c(n1)NC1(CCN(C(=O)Cc3ccc(F)cc3)C1)CC2C (single isomer, unassigned) [Example 9, 1-(4,7-dimethyl-3,4-dihydro-1H-spiro[1,8-naphthyridine-2,3′-pyrrolidin]-1′-yl)-2-(4-fluorophenyl)ethan-1-one]
3 | 440 | Cc1ccc2c(n1)NC1(CCN(C(=O)Cc3ccc(F)cc3)C1)CC2C (single isomer, unassigned) [Example 10, 1-(4,7-dimethyl-3,4-dihydro-1H-spiro[1,8-naphthyridine-2,3′-pyrrolidin]-1′-yl)-2-(4-fluorophenyl)ethan-1-one]
4 | > 2200 | Cc1ccc2c(n1)NC1(CCN(C(=O)Cc3ccc(F)cc3)C1)CC2C (single isomer, unassigned) [Example 11, 1-(4,7-dimethyl-3,4-dihydro-1H-spiro[1,8-naphthyridine-2,3′-pyrrolidin]-1′-yl)-2-(4-fluorophenyl)ethan-1-one]
5 | > 2200 | Cc1ccc2c(n1)NC1(CCN(C(=O)Cc3ccc(F)cc3)C1)CC2C (single isomer, unassigned) [Example 12, 1-(4,7-dimethyl-3,4-dihydro-1H-spiro[1,8-naphthyridine-2,3′-pyrrolidin]-1′-yl)-2-(4-fluorophenyl)ethan-1-one]
6 | > 220 | Cc1nc2c(cc1-c1cnn(C)c1)CCC1(CCN(C(=O)Cc3ccc(F)cc3)C1)N2 (single isomer, unassigned) [Example 19, 2-(4-fluorophenyl)-1-[7-methyl-6-(1-methyl-1H-pyrazol-4-yl)-3,4-dihydro-1H-spiro[1,8-naphthyridine-2,3′-pyrrolidin]-1′-yl]ethan-1-one]
7 | 0.6 | Cc1nc2c(cc1-c1cnn(C)c1)CCC1(CCN(C(=O)Cc3ccc(F)cc3)C1)N2 (single isomer, unassigned) [Example 20, 2-(4-fluorophenyl)-1-[7-methyl-6-(1-methyl-1H-pyrazol-4-yl)-3,4-dihydro-1H-spiro[1,8-naphthyridine-2,3′-pyrrolidin]-1′-yl]ethan-1-one]
8 | 180 | COc1cc([C@@H](C)C(=O)N2CC[C@@]3(CCc4cc(-c5ncccn5)c(C)nc4N3)C2)c(C(F)F)cn1 (single isomer, unassigned) [Example 37]
9 | > 200 | Cc1nc2c(cc1-c1ncccn1)CC[C@@]1(CCN(C(=O)[C@H](C)c3cc(C(F)(F)F)ncc3Cl)C1)N2 (single isomer, unassigned) [Example 38]

What follows are molecules tested against human Melanocortin-4 receptor (MC4R) (Homo sapiens (Human), UniProt P32245) (assay: Functional in vitro MC4R antagonist potency assay (cAMP HTRF in CHO cells)). Conditions: cAMP HTRF in CHO cells expressing human MC4R, 200 nM aMSH; Kb by Leff-Dougall equation; geometric mean; read-out: Kb (nM) Antagonist geometric.
Sequence of human Melanocortin-4 receptor (MC4R) (P32245 whole entry): as above
Type: cell-based
Procedure: Example BB. Functional In Vitro MC4R Antagonist Potency Assay
The functional in vitro antagonist potency for test compounds was determined by monitoring intracellular cyclic adenosine monophosphate (cAMP) levels in Chinese hamster ovary (CHO—) cells stably expressing the human Melanocortin-4 receptor (MC4R). Following agonist activation, human MC4R associates with the G-protein complex causing the Gα subunit to exchange bound GDP for GTP, followed by dissociation of the Ga-GTP complex. The activated Gα subunit can couple to downstream effectors to regulate the levels of second messengers or cAMP within the cell. Thereby, determination of intracellular cAMP levels allows for pharmacological characterization. Intracellular cAMP levels are quantitated using a homogenous assay utilizing the Homogeneous Time-Resolved Fluorescence (HTRF) technology from CisBio. The method is a competitive immunoassay between native cAMP produced by cells and the cAMP labelled with the acceptor dye, d2. The two entities then compete for binding to a monoclonal anti-cAMP antibody labeled with cryptate. The specific signal is inversely proportional to the concentration of cAMP in the cells.
Test compounds were solubilized to 30 mM in 100% dimethyl sulfoxide (DMSO) and stored. […] The final compound concentration range in the assay was 400 nM to […], with a final DMSO concentration of 0.1%.
(95% O2: 5% CO2) overnight, with micro-clime lids (Labcyte, Cat No. LLS-0310). […] Cells were incubated with compound for 30 minutes at 37° C. (95% O2: 5% CO2) before addition of 5 μL EC80, agonist stimulation (200 nM α-melanocyte stimulating hormone, aMSH, Bachem) and another 30-minute incubation at 37° C. (95% O2: 5% CO2). Intracellular cAMP levels were quantified as per Cisbio's protocol (5 uL of D2 and then 5 uL Cryptate, incubated for 1-2 hours at room temperature).
Data expressed as nM cAMP were then normalized to control wells using Activity Base (IDBS). Zero percent effect (ZPE) was defined as nM of cAMP generated from ECK, agonist stimulation (200 nM aMSH). In the absence of an antagonist control compound, one hundred percent effect (HPE) was defined as nM of cAMP generated from assay buffer/vehicle only.

Row | Kb [nM] | Compound
10 | 0.59 | COc1cc([C@@H](C)C(=O)N2CC[C@@]3(CCc4cc(-c5nccc(C(F)F)n5)c(C)nc4N3)C2)c(F)cn1 [Example 200, (2R)-1-{(2S)-6-[4-(difluoromethyl)pyrimidin-2-yl]-7-methyl-3,4-dihydro-1H-spiro[1,8-naphthyridine-2,3′-pyrrolidin]-1′-yl}-2-(5-fluoro-2-methoxypyridin-4-yl)propan-1-one]

Same assay, conditions: human MC4R in CHO cells, cAMP HTRF, 200 nM aMSH challenge; Kb from IC50 by Leff-Dougall equation; geometric mean; read-out: Kb (nM) Antagonist geometric

Row | Kb [nM] | Compound
11 | 40 | COc1cc([C@@H](C)C(=O)N2CC[C@@]3(CCc4cc(-c5cnc(C)nc5)c(C)nc4N3)C2)c(F)cn1 [Example 151, (2R)-2-(5-fluoro-2-methoxypyridin-4-yl)-1-[(2S)-7-methyl-6-(2-methylpyrimidin-5-yl)-3,4-dihydro-1H-spiro[1,8-naphthyridine-2,3′-pyrrolidin]-1′-yl]propan-1-one]
12 | 15 | COc1cc([C@@H](C)C(=O)N2CC[C@@]3(CCc4cc(-c5cnc(C)s5)c(C)nc4N3)C2)c(F)cn1 [Example 153, (2R)-2-(5-fluoro-2-methoxypyridin-4-yl)-1-[(2S)-7-methyl-6-(2-methyl-1,3-thiazol-5-yl)-3,4-dihydro-1H-spiro[1,8-naphthyridine-2,3′-pyrrolidin]-1′-yl]propan-1-one]
13 | 9.5 | COc1cc([C@@H](C)C(=O)N2CC[C@@]3(CCc4cc(-c5cnn6cccnc56)c(C)nc4N3)C2)c(F)cn1 [Example 154, (2R)-2-(5-fluoro-2-methoxypyridin-4-yl)-1-[(2S)-7-methyl-6-(pyrazolo[1,5-a]pyrimidin-3-yl)-3,4-dihydro-1H-spiro[1,8-naphthyridine-2,3′-pyrrolidin]-1′-yl]propan-1-one]
14 | 20 | COc1cc([C@@H](C)C(=O)N2CC[C@@]3(CCc4cc(-c5cncc(C)n5)c(C)nc4N3)C2)c(F)cn1 [Example 156, (2R)-2-(5-fluoro-2-methoxypyridin-4-yl)-1-[(2S)-7-methyl-6-(6-methylpyrazin-2-yl)-3,4-dihydro-1H-spiro[1,8-naphthyridine-2,3′-pyrrolidin]-1′-yl]propan-1-one]
15 | 23 | COc1cc([C@@H](C)C(=O)N2CC[C@@]3(CCc4cc(-c5cnc(C)cn5)c(C)nc4N3)C2)c(F)cn1 [Example 158, (2R)-2-(5-fluoro-2-methoxypyridin-4-yl)-1-[(2S)-7-methyl-6-(5-methylpyrazin-2-yl)-3,4-dihydro-1H-spiro[1,8-naphthyridine-2,3′-pyrrolidin]-1′-yl]propan-1-one]
16 | > 57 | COc1cc([C@@H](C)C(=O)N2CC[C@@]3(CCc4cc(-c5nccnc5C)c(C)nc4N3)C2)c(F)cn1 [Example 164, (2R)-2-(5-fluoro-2-methoxypyridin-4-yl)-1-[(2S)-7-methyl-6-(3-methylpyrazin-2-yl)-3,4-dihydro-1H-spiro[1,8-naphthyridine-2,3′-pyrrolidin]-1′-yl]propan-1-one]
17 | 14 | COc1cc([C@@H](C)C(=O)N2CC[C@@]3(CCc4cc(-c5cccc(C(F)F)n5)c(C)nc4N3)C2)c(F)cn1 [Example 181, (2R)-1-{(2S)-6-[6-(difluoromethyl)pyridin-2-yl)-7-methyl-3,4-dihydro-1H-spiro[1,8-naphthyridine-2,3′-pyrrolidin]-1′-yl}-2-(5-fluoro-2-methoxypyridin-4-yl)propan-1-one]
18 | 0.086 | COc1cc([C@@H](C)C(=O)N2CC[C@@]3(CCc4cc(-c5nc(C)n(C(F)F)n5)c(C)nc4N3)C2)c(F)cn1 [Example 188, (2R)-1-{(2S)-6-[1-(difluoromethyl)-5-methyl-1H-1,2,4-triazol-3-yl]-7-methyl-3,4-dihydro-1H-spiro[1,8-naphthyridine-2,3′-pyrrolidin]-1′-yl}-2-(5-fluoro-2-methoxypyridin-4-yl)propan-1-one]
19 | 4.3 | COc1cc([C@@H](C)C(=O)N2CC[C@@]3(CCc4cc(-c5nc(C(F)F)n(C6CC6)n5)c(C)nc4N3)C2)c(F)cn1 [Example 189, (2R)-1-{(2S)-6-[1-cyclopropyl-5-(difluoromethyl)-1H-1,2,4-triazol-3-yl]-7-methyl-3,4-dihydro-1H-spiro[1,8-naphthyridine-2,3′-pyrrolidin]-1′-yl}-2-(5-fluoro-2-methoxypyridin-4-yl)propan-1-one]
20 | 8.3 | COc1cc([C@@H](C)C(=O)N2CC[C@@]3(CCc4cc(-c5cccc(OC(F)F)n5)c(C)nc4N3)C2)c(F)cn1 [Example 198, (2R)-1-{(2S)-6-[6-(difluoromethoxy)pyridin-2-yl]-7-methyl-3,4-dihydro-1H-spiro[1,8-naphthyridine-2,3′-pyrrolidin]-1′-yl}-2-(5-fluoro-2-methoxypyridin-4-yl)propan-1-one]
21 | > 54 | COc1cc([C@@H](C)C(=O)N2CC[C@@]3(CCc4cc(-c5ccc(C6CC6)nn5)c(C)nc4N3)C2)c(F)cn1 [Example 199, (2R)-1-[(2S)-6-(6-cyclopropylpyridazin-3-yl)-7-methyl-3,4-dihydro-1H-spiro[1,8-naphthyridine-2,3′-pyrrolidin]-1′-yl]-2-(5-fluoro-2-methoxypyridin-4-yl)propan-1-one]
